Where a name gives a salt, the structure may show the parent alone. Some results are limits rather than exact numbers.

For the first test, the target named is Recombinant Btk (Homo sapiens (Human), UniProt Q06187). The test is described as follows: BTK kinase assay (TR-FRET). The settings on record: IC50 (nM) Btk, 1 hour pre-incubation, ATP at Km.
Sequence of Recombinant Btk (Q06187 whole entry): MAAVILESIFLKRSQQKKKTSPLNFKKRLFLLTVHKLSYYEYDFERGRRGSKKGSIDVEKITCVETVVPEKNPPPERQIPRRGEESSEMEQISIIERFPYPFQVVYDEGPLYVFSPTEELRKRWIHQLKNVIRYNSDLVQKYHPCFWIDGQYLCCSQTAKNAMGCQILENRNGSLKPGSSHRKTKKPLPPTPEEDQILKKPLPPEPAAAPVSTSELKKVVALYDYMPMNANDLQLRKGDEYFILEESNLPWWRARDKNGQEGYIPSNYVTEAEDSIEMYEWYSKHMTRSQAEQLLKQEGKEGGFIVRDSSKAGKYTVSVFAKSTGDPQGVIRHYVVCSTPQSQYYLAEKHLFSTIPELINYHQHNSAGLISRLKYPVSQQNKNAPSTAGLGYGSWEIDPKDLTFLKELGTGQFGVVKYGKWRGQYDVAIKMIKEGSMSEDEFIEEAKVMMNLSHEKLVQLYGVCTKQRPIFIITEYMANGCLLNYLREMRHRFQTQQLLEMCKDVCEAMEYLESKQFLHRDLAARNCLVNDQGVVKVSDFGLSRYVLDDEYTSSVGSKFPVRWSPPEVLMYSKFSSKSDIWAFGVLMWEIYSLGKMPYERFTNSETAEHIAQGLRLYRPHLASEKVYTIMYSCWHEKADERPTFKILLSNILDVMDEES
For the molecule `C=CC(=O)Nc1ccccc1C1CCNc2c(C(N)=O)c(-c3ccc(OCc4ccccc4)cc3)nn21` (single isomer, unassigned) [Compound 10b], the IC50 stood at 42 nM.

Staying with this test, now noted: read-out: IC50 (nM) Btk; 1 hour pre-incubation, ATP at Km.
With `NC(=O)c1c(-c2ccc(Oc3ccccc3)cc2)nn2c1NC[C@H]1CNC[C@H]12` (relative stereo) [Compound 115], the IC50 worked out at 8200 nM.

Regarding `C=CC(=O)N1CCC2[C@H](CNc3c(C(N)=O)c(-c4ccc(Oc5ccccc5)cc4)nn32)C1` (single isomer, unassigned) [Compound 30b], the IC50 stood at 16 nM. As to `CC(C)(C)OC(=O)N1CC2[C@@H](CNc3c(C(N)=O)c(-c4ccc(Oc5ccccc5)cc4)nn32)C1` (single isomer, unassigned) [Compound 114, Cis-7-(1-tert-Butoxycarbonyl)-2-(4-phenoxyphenyl)-5,5a,6,7,8,8a-hexahydro-4H-pyrazolo[1,5-a]pyrrolo[3,4-e]pyrimidine-3-carboxamide], the IC50 was 6000 nM. For `N#Cc1c(-c2ccc(Oc3ccccc3)cc2)nn2c(-c3cccc(N)c3)ccnc12` [Compound 1, 7-(3-Aminophenyl)-2-(4-phenoxyphenyl)pyrazolo[1,5-a]pyrimidine-3-carbonitrile], the IC50 was greater than 10000 nM. Take `NC(=O)c1c(-c2ccc(Oc3ccccc3)cc2)nn2c1NCCC2c1cccc(N)c1` (centres unmarked) [Compound 2, 7-(3-Aminophenyl)-2-(4-phenoxyphenyl)-4,5,6,7-tetrahydropyrazolo [1,5-a]pyrimidine-3-carboxamide]: the IC50 was 360 nM.

Regarding `NC(=O)c1c(-c2ccc(Oc3ccccc3)cc2)nn2c(-c3cccc(N)c3)ccnc12` [Compound 7, 7-(3-Aminophenyl)-2-(4-phenoxyphenyl)pyrazolo[1,5-a]pyrimidine-3-carboxamide], the IC50 was greater than 10000 nM.

For `NC(=O)c1c(-c2ccc(OCc3ccccc3)cc2)nn2c1NCCC2c1ccccc1N` (centres unmarked) [Compound 9, 7-(2-Aminophenyl)-2-(4-(benzyloxy)phenyl)-4,5,6,7-tetrahydro pyrazolo[1,5-a]pyrimidine-3-carboxamide], the IC50 worked out at 3700 nM. Still for that read-out and setting: the result for `NC(=O)c1c(-c2ccc(Oc3ccc(F)cc3)cc2)nn2c1NCCC2c1ccccc1N` (centres unmarked) [Compound 11, 7-(2-Aminophenyl)-2-(4-(4-fluorophenoxy)phenyl)-4,5,6,7-tetrahydro pyrazolo[1,5-a]pyrimidine-3-carboxamide] reads 4500 nM; that for `C=CC(=O)Nc1ccccc1C1CCNc2c(C(N)=O)c(-c3ccc(Oc4ccc(F)cc4)cc3)nn21` (centres unmarked) [Compound 12, 7-(2-Acrylamidophenyl)-2-(4-(4-fluorophenoxy)phenyl)-4,5,6,7-tetrahydropyrazolo[1,5-a]pyrimidine-3-carboxamide], 1.7 nM. On to `CNc1ccccc1C1CCNc2c(C(N)=O)c(-c3ccc(Oc4ccc(F)cc4)cc3)nn21` (centres unmarked) [Compound 15, 2-(4-(4-Fluorophenoxy)phenyl)-7-(2-(methylamino)phenyl)-4,5,6,7-tetrahydropyrazolo[1,5-a]pyrimidine-3-carboxamide], for which the IC50 is 2700 nM.

On to `C=CC(=O)N(C)c1ccccc1C1CCNc2c(C(N)=O)c(-c3ccc(Oc4ccc(F)cc4)cc3)nn21` (centres unmarked) [Compound 16, 2-(4-(4-Fluorophenoxy)phenyl)-7-(2-(N-methylacrylamido)phenyl)-4,5,6,7-tetrahydropyrazolo[1,5-a]pyrimidine-3-carboxamide], for which the half-maximal inhibitory concentration (IC50) amounted to 19 nM. Still for that read-out and setting: with `NC(=O)c1c(-c2ccc(OC3CCCC3)cc2)nn2c1NCCC2c1ccccc1N` (centres unmarked) [Compound 17, 7-(2-Aminophenyl)-2-(4-(cyclopentyloxy)phenyl)-4,5,6,7-tetrahydro pyrazolo[1,5-a]pyrimidine-3-carboxamide] the figure was greater than 10000 nM; with `NC(=O)c1c(-c2ccc(OCC3CC3)cc2)nn2c1NCCC2c1ccccc1N` (centres unmarked) [Compound 19, 7-(2-Aminophenyl)-2-(4-(cyclopropylmethoxy)phenyl)-4,5,6,7-tetrahydropyrazolo[1,5-a]pyrimidine-3-carboxamide], 5300 nM; with `COCCOc1ccc(-c2nn3c(c2C(N)=O)NCCC3c2ccccc2N)cc1` (centres unmarked) [Compound 21, 7-(2-Aminophenyl)-2-(4-(2-methoxyethoxy)phenyl)-4,5,6,7-tetrahydropyrazolo[1,5-a]pyrimidine-3-carboxamide], greater than 10000 nM.

Regarding `NC(=O)c1c(-c2ccc(OC3CCOCC3)cc2)nn2c1NCCC2c1ccccc1N` (centres unmarked) [Compound 23, 7-(2-Aminophenyl)-2-(4-(tetrahydro-2H-pyran-4-yloxy)phenyl)-4,5,6,7-tetrahydropyrazolo[1,5-a]pyrimidine-3-carboxamide], the 50% inhibitory concentration (IC50) amounted to 3200 nM. Same read-out and setting: with `C=CC(=O)Nc1ccccc1C1CCNc2c(C(N)=O)c(-c3ccc(OC4CCOCC4)cc3)nn21` (centres unmarked) [Compound 24, 7-(2-Acrylamidophenyl)-2-(4-(tetrahydro-2H-pyran-4-yloxy)phenyl)-4,5,6,7-tetrahydropyrazolo[1,5-a]pyrimidine-3-carboxamide] the figure was 39 nM; with `CC(C)(C)OC(=O)N1CCC(C2CCNc3c(C(N)=O)c(-c4ccc(Oc5ccccc5)cc4)nn32)CC1` (centres unmarked) [Compound 25, 7-(1-(Tert-butoxycarbonyl)piperidin-4-yl)-2-(4-phenoxyphenyl)-4,5,6,7-tetrahydropyrazolo[1,5-a]pyrimidine-3-carboxamide], 3100 nM; with `NC(=O)c1c(-c2ccc(Oc3ccccc3)cc2)nn2c1NCCC2C1CCNCC1` (centres unmarked) [Compound 26, 7-(Piperidin-4-yl)-2-(4-phenoxyphenyl)-4,5,6,7-tetrahydropyrazolo [1,5-a]pyrimidine-3-carboxamide trifluoroacetate], 1700 nM. Still for that read-out and setting: the result for `NCC1CCNc2c(C(N)=O)c(-c3ccc(Oc4ccccc4)cc3)nn21` (centres unmarked) [Compound 32, 7-(Aminomethyl)-2-(4-phenoxyphenyl)-4,5,6,7-tetrahydropyrazolo [1,5-a]pyrimidine-3-carboxamide] reads 1700 nM; that for `CNCC1CCNc2c(C(N)=O)c(-c3ccc(Oc4ccccc4)cc3)nn21` (centres unmarked) [Compound 34, 7-((Methylamino)methyl)-2-(4-phenoxyphenyl)-4,5,6,7-tetrahydro pyrazolo[1,5-a]pyrimidine-3-carboxamide], 1900 nM. The same measure, in the same setting: the result for `C=CC(=O)N(C)CC1CCNc2c(C(N)=O)c(-c3ccc(Oc4ccccc4)cc3)nn21` (centres unmarked) [Compound 35] reads 1.1 nM. As for `NCC1CCNc2c(C(N)=O)c(-c3cnn(Cc4ccccc4)c3)nn21` (centres unmarked) [Compound 36, 7-(Aminomethyl)-2-(1-benzyl-1H-pyrazol-4-yl)-4,5,6,7-tetrahydro pyrazolo[1,5-a]pyrimidine-3-carboxamide trifluoroacetate], the IC50 was greater than 10000 nM. Same read-out and setting: the result for `C=CC(=O)NCC1CCNc2c(C(N)=O)c(-c3cnn(Cc4ccccc4)c3)nn21` (centres unmarked) [Compound 37, 7-(Acrylamidomethyl)-2-(1-benzyl-1H-pyrazol-4-yl)-4,5,6,7-tetrahydropyrazolo[1,5-a]pyrimidine-3-carboxamide] reads 640 nM; that for `NC(=O)c1c(-c2ccc(Oc3ccccc3)cc2)nn2c1NCC21CCN(Cc2ccccc2)CC1` [Compound 38, 1′-Benzyl-6-(4-phenoxyphenyl)-1,2-dihydrospiro[imidazo[1,2-b]pyrazole-3,4′-piperidine]-7-carboxamide], 490 nM; that for `NC(=O)c1c(-c2ccc(Oc3ccccc3)cc2)nn2c1NCC21CCNCC1` [Compound 39, 6-(4-Phenoxyphenyl)-1,2-dihydrospiro[imidazo[1,2-b]pyrazole-3,4′-piperidine]-7-carboxamide], 1400 nM. Turning to `NC(=O)c1c(-c2ccc(Oc3ccccc3)cc2)nn2c1NCCC21CCN(Cc2ccccc2)CC1` [Compound 41, 1-Benzyl-2′-(4-phenoxyphenyl)-5′,6′-dihydro-4′H-spiro[piperidine-4,7′-pyrazolo[1,5-a]pyrimidine]-3′-carboxamide], the 50% inhibitory concentration (IC50) stood at 180 nM. Take `NC(=O)c1c(-c2ccc(Oc3ccccc3)cc2)nn2c1NCCC21CCNCC1` [Compound 42, 2′-(4-Phenoxyphenyl)-5′,6′-dihydro-4′H-spiro[piperidine-4,7′-pyrazolo [1,5-a]pyrimidine]-3′-carboxamide trifluoroacetate]: the half-inhibitory concentration (IC50) came to 330 nM. Same read-out and setting: the result for `C=CC(=O)N1CCC2(CCNc3c(C(N)=O)c(-c4ccc(Oc5ccccc5)cc4)nn32)CC1` [Compound 43, 1-Acryloyl-2′-(4-phenoxyphenyl)-5′,6′-dihydro-4′H-spiro[piperidine-4,7′-pyrazolo[1,5-a]pyrimidine]-3′-carboxamide] reads 3 nM; that for `NC(=O)c1c(-c2ccc(Oc3ccccc3)cc2)nn2c1NCC21CN(Cc2ccccc2)C1` [Compound 44, 1-Benzyl-6′-(4-phenoxyphenyl)-1′,2′-dihydrospiro[azetidine-3,3′-imidazo[1,2-b]pyrazole]-7′-carboxamide], 220 nM. Still for that read-out and setting: the result for `NC(=O)c1c(-c2ccc(Oc3ccccc3)cc2)nn2c1NCC21CNC1` [Compound 45, 6′-(4-Phenoxyphenyl)-1′,2′-dihydrospiro[azetidine-3,3′-imidazo[1,2-b]pyrazole]-7′-carboxamide] reads 510 nM; that for `C=CC(=O)N1CC2(CNc3c(C(N)=O)c(-c4ccc(Oc5ccccc5)cc4)nn32)C1` [Compound 46, 1-Acryloyl-6′-(4-phenoxyphenyl)-1′,2′-dihydrospiro[azetidine-3,3′-imidazo[1,2-b]pyrazole]-7′-carboxamide], 5 nM; that for `NC(=O)c1c(-c2ccc(Oc3ccccc3)cc2)nn2cc(-c3cccc(N)c3)[nH]c12` [Compound 47, 2-(3-Aminophenyl)-6-(4-phenoxyphenyl)-1H-imidazo[1,2-b]pyrazole-7-carboxamide], 110 nM. On the same count and under the same terms, the result for `NC(=O)c1c(-c2ccc(Oc3ccccc3)cc2)nn2c(-c3cccc(N)c3)c[nH]c12` [Compound 49, 3-(3-Aminophenyl)-6-(4-phenoxyphenyl)-1H-pyrazolo[1,5-a]imidazole-7-carboxamide] reads 29 nM. Turning to `NC(=O)c1c(-c2ccc(Oc3ccccc3)cc2)nn2c3c([nH]c12)CCNC3` [Compound 51, 2-(4-Phenoxyphenyl)-5,6,7,8-tetrahydro-4H-pyrazolo[5′,1′:2,3]imidazo[4,5-c]pyridine-3-carboxamide trifluoroacetate], the IC50 turned out to be 310 nM.

For the origin of these results see US20250340560A1, “SUBSTITUTED PYRAZOLO[1,5-a]PYRIMIDINES AS BRUTON'S TYROSINE KINASE MODULATORS” (BEIGENE SWITZERLAND GMBH, priority 2013, published 2025).
